Data taken from ChEMBL document CHEMBL1201862, “PubChem BioAssay data set” (2004).
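These data come from cells grown in 96-well plates and exposed to compound for 48 hours at five concentrations. Abbreviation: GI50, concentration required for 50% inhibition of growth.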 The source made the active and inactive calls. No stated cut-off is given here; in the data, active = GI50 up to about 1.1 µM and inactive = higher.

Assays:
Experiment in all cases: NCI-60 cell line screen, 48 h
[1] = system: SN12C
[2] = system: 786-0
[3] = system: Hs-578T
[4] = system: NCI/ADR-RES
[5] = system: M14
[6] = system: MDA-MB-231
[7] = system: OVCAR-5
[8] = system: SF-268
[9] = system: COLO 205
[10] = system: SNB-75
[11] = system: UO-31
[12] = system: SK-MEL-28
[13] = system: SW-620
[14] = system: A549
[15] = system: MOLT-4
[16] = system: IGROV-1
[17] = system: NCI-H226
[18] = system: K562
[19] = system: HCC 2998
[20] = system: ACHN

SMILES | GI50 [1] | GI50 [2] | GI50 [3] | GI50 [4] | GI50 [5] | GI50 [6] | GI50 [7] | GI50 [8] | GI50 [9] | GI50 [10] | GI50 [11] | GI50 [12] | GI50 [13] | GI50 [14] | GI50 [15] | GI50 [16] | GI50 [17] | GI50 [18] | GI50 [19] | GI50 [20]
CCC(=O)/C(=C\I)c1ccccc1 | 2.16 µM (inactive) | 1.78 µM (inactive) | 5.2 µM (inactive) | 12.4 µM (inactive) | 2.28 µM (inactive) | 1.75 µM (inactive) | 1.84 µM (inactive) | 16.7 µM (inactive) | 2.05 µM (inactive) | 1.52 µM (inactive) | 2.05 µM (inactive) | 2.7 µM (inactive) | 1.58 µM (inactive) | 20.9 µM (inactive) | 2.23 µM (inactive) | 1.97 µM (inactive) | 23.4 µM (inactive) | 0.796 µM (active) | – | –
Oc1ccc(O)c(Sc2nnc(CCCCCCCCc3nnc(Sc4cc(O)ccc4O)o3)o2)c1 | 90.6 µM (inactive) | 19 µM (inactive) | – | > 100 µM (inactive) | > 100 µM (inactive) | > 100 µM (inactive) | 95.9 µM (inactive) | 73.6 µM (inactive) | 48.3 µM (inactive) | > 100 µM (inactive) | 16.6 µM (inactive) | > 100 µM (inactive) | 31.3 µM (inactive) | > 100 µM (inactive) | 49.5 µM (inactive) | 96.8 µM (inactive) | > 100 µM (inactive) | 39.8 µM (inactive) | 75.5 µM (inactive) | 28.1 µM (inactive)
COC12C=CC(CC1)C1C(=O)c3c(C)c(C)n(C)c3C(=O)C12 (configuration not stated) | – | > 100 µM (inactive) | 70.3 µM (inactive) | > 100 µM (inactive) | > 100 µM (inactive) | – | > 100 µM (inactive) | > 100 µM (inactive) | > 100 µM (inactive) | 67.6 µM (inactive) | 36.1 µM (inactive) | – | > 100 µM (inactive) | – | > 100 µM (inactive) | 73.5 µM (inactive) | 25.9 µM (inactive) | > 100 µM (inactive) | – | 90.6 µM (inactive)
Cc1cccc2c1nc1n2C(=O)c2ccccc2-1 | > 100 µM (inactive) | > 100 µM (inactive) | – | > 100 µM (inactive) | > 100 µM (inactive) | – | > 100 µM (inactive) | > 100 µM (inactive) | > 100 µM (inactive) | > 100 µM (inactive) | > 100 µM (inactive) | > 100 µM (inactive) | > 100 µM (inactive) | > 100 µM (inactive) | > 100 µM (inactive) | > 100 µM (inactive) | > 100 µM (inactive) | > 100 µM (inactive) | > 100 µM (inactive) | > 100 µM (inactive)
ClCCN(CC#CCCCC#CCN(CCCl)CCCl)CCCl | 7.21 µM (inactive) | 4.61 µM (inactive) | – | 14.5 µM (inactive) | 14.5 µM (inactive) | – | 11.7 µM (inactive) | 8.85 µM (inactive) | 15.6 µM (inactive) | 10.3 µM (inactive) | 25.8 µM (inactive) | 19.1 µM (inactive) | 10.2 µM (inactive) | 8.99 µM (inactive) | 1.66 µM (inactive) | 14.2 µM (inactive) | 12.9 µM (inactive) | 11 µM (inactive) | 18.4 µM (inactive) | 3.82 µM (inactive)
N#Cc1cc([N+](=O)[O-])ccc1NC(=O)C(=O)C(C(=O)c1ccc2ccccc2c1)C1OCc2ccccc21 (configuration not stated) | 13.7 µM (inactive) | 6.28 µM (inactive) | – | – | 15.1 µM (inactive) | – | 14.2 µM (inactive) | 4.11 µM (inactive) | 9.4 µM (inactive) | 4.23 µM (inactive) | 12.8 µM (inactive) | 4.18 µM (inactive) | 6.27 µM (inactive) | 10.7 µM (inactive) | 2.18 µM (inactive) | 17.6 µM (inactive) | 1.68 µM (inactive) | 6.25 µM (inactive) | 10.3 µM (inactive) | 14.1 µM (inactive)
Cc1nc(N)c(-c2ccccc2)s1 | 81.3 µM (inactive) | 77.6 µM (inactive) | – | – | 40.9 µM (inactive) | – | > 100 µM (inactive) | > 100 µM (inactive) | > 47 µM (inactive) | 86.7 µM (inactive) | > 100 µM (inactive) | > 100 µM (inactive) | 18.3 µM (inactive) | 68.9 µM (inactive) | > 76.7 µM (inactive) | > 78.2 µM (inactive) | > 100 µM (inactive) | > 70.5 µM (inactive) | > 100 µM (inactive) | > 100 µM (inactive)
Nc1cc2nc(-c3ccccc3)cn2cn1 | 85.1 µM (inactive) | > 100 µM (inactive) | – | > 100 µM (inactive) | > 100 µM (inactive) | > 100 µM (inactive) | 79.6 µM (inactive) | > 100 µM (inactive) | > 100 µM (inactive) | 40.2 µM (inactive) | 32.4 µM (inactive) | > 100 µM (inactive) | > 100 µM (inactive) | > 100 µM (inactive) | > 100 µM (inactive) | – | > 100 µM (inactive) | > 100 µM (inactive) | – | > 100 µM (inactive)
CCC/C(=N\NC(=S)N1CC2CCC(CC2)C1)c1ccccn1 | 0.395 µM (active) | 0.438 µM (active) | 0.213 µM (active) | – | 0.0929 µM (active) | 1.01 µM (active) | 0.649 µM (active) | 0.641 µM (active) | 0.0205 µM (active) | 0.185 µM (active) | 1.1 µM (active) | 0.783 µM (active) | 0.0566 µM (active) | 0.414 µM (active) | 0.0179 µM (active) | 0.167 µM (active) | 1.82 µM (inactive) | 0.00581 µM (active) | 0.344 µM (active) | 0.131 µM (active)
NC(=O)OCc1c(-c2ccccc2)nn(-c2ccccc2)c1COC(N)=O | > 100 µM (inactive) | > 100 µM (inactive) | – | > 100 µM (inactive) | > 100 µM (inactive) | > 100 µM (inactive) | > 100 µM (inactive) | > 100 µM (inactive) | > 100 µM (inactive) | 45.7 µM (inactive) | > 100 µM (inactive) | > 100 µM (inactive) | > 100 µM (inactive) | > 100 µM (inactive) | – | > 10 µM (inactive) | > 100 µM (inactive) | – | > 100 µM (inactive) | –
COC(=O)[C@](NC(=O)OCc1ccccc1)([C@@H](C)Sc1ccc(C)cc1)C(F)(F)F | – | 59.7 µM (inactive) | 44.9 µM (inactive) | 36 µM (inactive) | 68.2 µM (inactive) | – | > 100 µM (inactive) | 38.4 µM (inactive) | 19.2 µM (inactive) | – | 51.9 µM (inactive) | 91.8 µM (inactive) | 27.2 µM (inactive) | 34.6 µM (inactive) | 21 µM (inactive) | 16.5 µM (inactive) | – | 23.6 µM (inactive) | > 100 µM (inactive) | 60.3 µM (inactive)
CN(C)CCNC(=O)c1cccc2c(NC(CS)C(=O)O)c3ccccc3nc12 (configuration not stated) | 2.6 µM (inactive) | 6.64 µM (inactive) | – | 9.82 µM (inactive) | 4.39 µM (inactive) | 6.18 µM (inactive) | 4.52 µM (inactive) | 7.94 µM (inactive) | 3.01 µM (inactive) | 14.4 µM (inactive) | 3.6 µM (inactive) | 10.7 µM (inactive) | 4.05 µM (inactive) | 4.62 µM (inactive) | 3.17 µM (inactive) | 4.88 µM (inactive) | 5.53 µM (inactive) | 3.79 µM (inactive) | 6.21 µM (inactive) | 4.49 µM (inactive)
C#CCNC(=O)NCCCCC(NC(C)=O)C(=O)NCc1ccccc1 (configuration not stated) | > 100 µM (inactive) | > 100 µM (inactive) | – | – | > 100 µM (inactive) | – | > 100 µM (inactive) | > 100 µM (inactive) | > 100 µM (inactive) | > 100 µM (inactive) | > 100 µM (inactive) | > 100 µM (inactive) | > 100 µM (inactive) | > 100 µM (inactive) | > 100 µM (inactive) | > 100 µM (inactive) | > 100 µM (inactive) | > 100 µM (inactive) | > 100 µM (inactive) | > 100 µM (inactive)
Cc1cc(C)c(-c2noc(-c3ccc(Cl)cc3)c2C2=NCCN2)c(C)c1 | 20.3 µM (inactive) | 15.3 µM (inactive) | – | – | 12.2 µM (inactive) | – | 32.1 µM (inactive) | 17.3 µM (inactive) | 16.4 µM (inactive) | 17.1 µM (inactive) | 6.38 µM (inactive) | 17.7 µM (inactive) | 32.4 µM (inactive) | 32.4 µM (inactive) | 16.6 µM (inactive) | 22.2 µM (inactive) | 23.8 µM (inactive) | 14.8 µM (inactive) | 17.8 µM (inactive) | 23.1 µM (inactive)
COC(=O)C1(C(=O)OC)N=C(C)OC1c1ccoc1 (configuration not stated) | > 100 µM (inactive) | > 100 µM (inactive) | – | > 100 µM (inactive) | > 100 µM (inactive) | – | > 100 µM (inactive) | – | > 100 µM (inactive) | > 100 µM (inactive) | > 100 µM (inactive) | > 100 µM (inactive) | > 100 µM (inactive) | > 100 µM (inactive) | > 100 µM (inactive) | – | > 100 µM (inactive) | 99.8 µM (inactive) | > 100 µM (inactive) | > 100 µM (inactive)
CSC(=S)N(C)C [CYSTOGON] | > 100 µM (inactive) | > 100 µM (inactive) | > 100 µM (inactive) | > 100 µM (inactive) | > 100 µM (inactive) | > 100 µM (inactive) | > 100 µM (inactive) | > 100 µM (inactive) | > 100 µM (inactive) | 80 µM (inactive) | > 100 µM (inactive) | > 100 µM (inactive) | > 100 µM (inactive) | > 100 µM (inactive) | > 100 µM (inactive) | > 100 µM (inactive) | > 100 µM (inactive) | > 100 µM (inactive) | – | –
